pIC50: −log10 of the molar value. “Also recorded” adds a separate entry of the source.
What was measured:
PA-1 = assay: Cell growth inhibition, PA-1 ovarian tumor cells; assay type: cell-based; conditions: Homo sapiens, PA-1, 72 h, PA-1 (ovary); 3 d exposure; cell number
Experimental: One ml of this cell suspension was added to each well of a 12 well cell culture plate that contained 3 ml of appropriate media plus serum. […] Control wells received 40 μl of 5% Kollidon 17PF alone. Seventy-two hours later, all cells were harvested by trypsinization and cell number determined electronically using a Coulter Model Z1 particle counter (Coulter Corp., Miami, Fla.) to assess cell growth inhibition. Each experiment was performed in duplicate and repeated a minimum of three times.
Cells were seeded at a density of 1-5×10^4 cells in each well of a 6 well tissue culture flask. […] After three days, cells were harvested by trypsinization and cell number determined electronically. Cell growth inhibition was determined by comparison to non-Taurolidine exposed control cultures. The IC50 was calculated as the concentration required to inhibit cell number by 50%.

SKOV-3 = assay: Annexin-V FITC binding (phosphotidylserine externalization), SKOV-3; assay type: cell-based, human; conditions: 24 h exposure
Experimental: Three×10^5 cells were seeded in plastic tissue culture flasks. […] Control cultures received an appropriate volume of Kollidine-17P. After an additional 24 h, cells were harvested and phosphotidylserine externalization determined by assessing Annexin-V FITC binding using cytofluorometric techniques. Each bar represents the mean±SE of four determinations. **p≦0.01, ***p≦0.001
Cell membrane phosphotidylserine externalization, as a reflection of the potential induction of apoptosis, was assessed by flow cytometry methods using the ApoAlert® Annexin-V/FITC assay kit. Briefly, 1×10^6 cells were incubated for 24 h in tissue culture medium containing serum. […] Control cultures received 5% Kollidon 17PF alone. Twenty-four hours later, all cells were harvested by trypsinization. The harvested cells were resuspended in 200 μl of binding buffer and then incubated for 5-15 min in a solution containing 1 μg/ml Annexin-V FITC at room temperature in the dark. The cells were then analyzed to quantitate Annexin-V binding by cytofluorometric techniques that utilized FACScan using the ModFit LT program with statistical analysis as described above.

PARP = assay: Western-blot analysis of PARP cleavage, NIH-3T3 cells; assay type: cell-based, murine; conditions: 24 h exposure to 50 or 100 μM
Experimental: Two×10^6 cells were seeded in 150 cm^2 tissue culture flasks. […] After an additional twenty-four hours, cells were harvested, cell number determined, and aliquots derived from equal cell numbers generated from each exposure condition. Total proteins from these whole cell lysates were separated by SDS-PAGE and transferred to nitrocellulose filters. Filters were then immunoblotted to detect intact PARP protein and cleavage fragments by using the clone C-2-10 mouse monoclonal anti-PARP antibody (Zymed Laboratories, San Francisco, Calif.). The resulting protein-antibody complexes were visualized by chemiluminescence techniques.
Western-blot analysis was used to assess of PARP cleavage. Two×10^6 cells were seeded into separate 75 cm^2 tissue culture flasks containing 20 ml of tissue culture media plus serum. […] Twenty-four hours after the addition of Taurolidine, cells were harvested, cell number determined, and aliquots containing an equal cell number were generated from each exposure condition. Total proteins from whole cell lysates generated from these aliquots were separated by SDS-PAGE and electrotransferred to nitrocellulose filters. Filters were then processed to detect intact PARP protein and cleavage fragments by using the clone C-2-10 mouse monoclonal anti-PARP antibody (Zymed Laboratories, San Francisco, Calif.). […]

[1] = system: SKOV-3 human ovarian tumor xenografts; assay: i.p. SKOV-3 human ovarian tumor xenografts in female nude mice; assay type: in vivo
Description: Fourteen days following the final Taurolidine injection, mice in all groups were sacrificed and the peritoneal cavity examined for the presence of tumors. Each experimental was repeated three times and the pooled number of animals in each group ranged from 15-21.
Fourteen days following the final Taurolidine injection, mice in all groups were sacrificed, i.p. ovarian tumor xenografts removed and tumor weighed. Each experiment was repeated three times and the pooled number of animals in each group ranged from 15-21. Each bar represents the mean (±SE) tumor weight of 15-21 animals. ***p≦0.001, ****p≦0.0001.
To evaluate therapeutic effectiveness, mice received a single intraperitoneal injection of 5×10^6 SKOV-3 cells in a volume of 0.5 ml. Immediately thereafter, mice were randomly divided into treatment groups of 7 animals. […] Control animals received 1 ml injections of 5% Kollidon 17PF alone. Animals were examined daily and body weight recorded twice weekly. […] The mean tumor weight for each treatment group was calculated and statistical analysis of differences in the mean tumor weight between treatment groups employed the Student's t-test. p-values of ≦0.05 were considered significant.

human cancer cell lines = assay: Growth inhibition of human cancer cell lines, 3-day exposure; assay type: cell-based; conditions: 72 h, read-out: concentration required to inhibit tumor cell growth (IC50)
Experimental: Parallel studies were carried out to assess whether disruption of cell adhesion played a role in the cytotoxic activity.

PA1 human ovarian cells = assay: DNA fragmentation, PA1 human ovarian cells; assay type: cell-based
Description: This DNA fragmentation was not observed in normal 3T3 cells.

[2] = system: normal murine bone marrow cultures; assay: Cytotoxic and apoptotic activity in normal murine bone marrow cultures; assay type: cell-based
Description: This observation was confirmed using normal (non-tumor) primary cells derived from animals, which are known to be free of tumors.

[3] = Clinical tolerability in ovarian tumor and glioblastoma patients; assay type: in vivo, human; conditions: i.p. lavage after surgery for recurrent ovarian tumors; systemic in glioblastoma
Experimental: Taurolidine was administered by i.p. lavage immediately following surgery for removal of recurrent ovarian tumors. For patients with glioblastoma, Taurolidine was administered systemically.
Taurolidine was administered by i.p. lavage immediately following surgery for removal of recurrent ovarian tumors. For patients with glioblastoma, taurolidine was administered systemically.

O=S1(=O)CCN(CN2CCS(=O)(=O)NC2)CN1 [Taurolidine, Bis-(1,1-dioxoperhydro-1,2,4-thiadiazinyl-4)methane]
pIC50 (PA-1): ~5.00
increase in Annexin-V binding (Annexin-V positive cells) (SKOV-3): 3 fold
PARP cleavage (PARP): little evidence of this proteolytic event
PARP cleavage (PARP; listed as taurolidine): PARP cleavage was not evident
ascites formation ([1]; 20 mg/mouse/injection i.p. x 3 d starting on the day of tumor cell injection): no evidence of ascites formation
tumor formation and growth ([1]; 3 d 20 mg/mouse i.p. regimen, nude mice bearing i.p. human ovarian tumor xenografts): significant inhibition of both tumor formation and growth; also recorded: significantly inhibited tumor development and growth; also recorded: highly effective and inhibited tumor formation
tumor growth ([1]; single cycle initiated 5 d after tumor cell injection (established i.p. tumors)): significantly inhibiting tumor growth
mean tumor size in treated mice vs controls ([1]; therapy delayed for up to 3 d after tumor cell injection): significantly smaller than in controls
pIC50 (human cancer cell lines): 4.30 to 4.90
DNA fragmentation (PA1 human ovarian cells; PA1, 24-hour exposure): induced a high degree of DNA fragmentation
DNA fragmentation by agarose-gel electrophoresis (PA1 human ovarian cells; ovarian tumor cells, 50 μM): overt DNA fragmentation
concentrations required to inhibit cell proliferation ([2]; normal murine bone marrow): concentrations in the mM range
induction of apoptosis ([2]; normal murine bone marrow cultures): did not produce cellular changes consistent with the induction of apoptosis
tolerability in patients [3]: well tolerated
